Test results reported in patent publication US10130611B2, “Use of benzo-heterocycle derivatives for preventing and treating cancer or for inhibiting cancer metastasis” (MEDICINAL BIOCONVERGENCE RESEARCH CENTER, priority 2009, dated 2018).

How the values were obtained:
[1] = molecular target: T1, interaction between KRS and laminin receptor (67LR) (Homo sapiens, UniProt Q15046); assay: Yeast two hybrid growth assay, LexA-KRS/B42-LR pair; type: cell-based; conditions: growth inhibition of yeast EGY/SH cells with LexA-KRS/B42-LR vs control, 1 μl of 10 mg/ml compound per well, 6 days, absorbance 540 nm; for inhibition at 10000 µg/mL (stock): read-out: Inhibition rate(%)
T1 construct: expressed in transfected cells; host or cells: yeast EGY/SH cells
T1 sequence (Q15046 whole entry): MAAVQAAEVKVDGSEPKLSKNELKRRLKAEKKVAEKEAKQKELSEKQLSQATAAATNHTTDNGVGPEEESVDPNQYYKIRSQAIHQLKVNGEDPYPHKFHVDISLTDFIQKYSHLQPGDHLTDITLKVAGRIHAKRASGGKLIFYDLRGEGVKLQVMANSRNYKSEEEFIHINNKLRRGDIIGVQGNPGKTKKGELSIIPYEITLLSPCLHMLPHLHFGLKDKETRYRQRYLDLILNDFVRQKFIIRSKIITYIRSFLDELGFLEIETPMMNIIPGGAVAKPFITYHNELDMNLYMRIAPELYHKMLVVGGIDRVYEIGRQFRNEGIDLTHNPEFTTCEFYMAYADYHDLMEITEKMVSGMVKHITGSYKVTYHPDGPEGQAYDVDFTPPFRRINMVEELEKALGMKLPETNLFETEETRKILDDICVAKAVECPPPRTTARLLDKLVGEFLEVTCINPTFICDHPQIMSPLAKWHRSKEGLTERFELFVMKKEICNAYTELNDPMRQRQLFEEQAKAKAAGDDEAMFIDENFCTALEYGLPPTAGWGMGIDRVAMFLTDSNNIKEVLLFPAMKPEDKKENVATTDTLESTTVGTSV
Experimental: On the compound of the present invention obtained by screening a library of compounds, the extent of inhibition on the interaction between KRS and laminin receptor (67LR) was determined by a yeast two hybrid assay, as described below. KRS, LR, AIMP2, AIMP3 and MRS were cloned at LexA vector (clontech) and B42 vector (clontech) each so as to produce required vectors. From among the vectors, LexA-KRS vector and B42-LR vector were co-transformed into yeast EGY/SH cells, and then the yeast cells were diluted to an absorbance (540 nm wavelength) of 0.2 in galactose medium not containing uracil (Ura), histidine (His), tryptophane (Trp) and leucine (Leu), and placed in an amount of 200 u in a 96 well plate. 1 μl of each compound at a concentration of 10 mg/ml was placed in each well, incubated for 6 days, and the absorbance was measured at 540 nm. […] The inhibitory specificity of the selected compound was tested by using two different interaction pairs such as LexA-KRS/B42-AIMP2 and LexA-MRS/B42-AIMP3.
In order to determine if the compound of the present invention controls the interaction between KRS and laminin receptor, the present inventors determined the interaction between KRS and 67LR through treatment of the compound of the present invention.

A549 cells = assay: Laminin-dependent membrane translocation of KRS and 67LR with kinase inhibitors; type: cell-based, human; conditions: inhibitor 3 hours then laminin 1 hour
Experimental: (§1) In FIG. 7, A549 cells were treated with laminin (10 μg/ml), and the levels of 67LR, 37LRP and KRS were determined by western blotting at the indicated times. Hsp90 and cadherin (Cad) were used as markers for cytoplasm and membrane, respectively. In FIG. 8, A549 cells untreated or treated with laminin for 1 hour were subjected to immunofluorescence staining with anti-67LR (MLuC5, Santacruz, sc-59732) (red) and KRS antibodies (green). In FIG. 9, A549 cells were treated with U73122 (U), staurosporin (ST) and LY294002 (LY) that inhibit PLC-gamma, PKC and PI3K, respectively, for 3 hours, and then treated with laminin for 1 hour. Then, it was determined how these kinase inhibitors would affect the cytoplasm and membrane of 67LR and KRS. In FIG. 10, A549 cells were transfected with Myc-KRS, and incubated for 24 hours. Then, the cells were treated with the indicated drugs and then with laminin as above. Myc-KRS was immunoprecipitated, and immunoblotted with anti-p-Thr, -Ser, and -Tyr antibodies. In FIG. 11, A549 cells were transfected with Myc-KRS, and cultured for 24 hours. […] Myc-KRS was immunoprecipitated, and co-precipitation of 67LR was determined by western blotting. […] EPRS (glutamyl-prolyl-tRNA synthetase) was immunoprecipitated with its specific antibody (AbCam), and co-precipitation of KRS was determined by western blotting (upper). […]

KRS = assay: Laminin-induced phosphorylation of KRS (immunoblot p-Thr, -Ser, -Tyr); type: cell-based, human; conditions: A549 cells transfected with Myc-KRS, inhibitor then laminin
Experimental: as §1

`COc1ccc2nc(NC(=O)c3ccccc3)oc2c1` [Compound of formula 2, N-(6-Methoxy-benzooxazol-2-yl)-benzamide] was tested, and the inhibition at 10000 µg/mL (stock) [1] was 54.2%.
With `COc1ccc2oc(NC(=O)c3ccccc3)nc2c1` [Compound of formula 3, N-(5-Methoxy-benzooxazol-2-yl)-benzamide] the “Inhibition rate(%)” value [1] was 59.98%.
`Clc1ccc2oc(Nc3ccccc3)nc2c1` [Compound of formula 4, (5-Chloro-benzooxazol-2-yl)-phenyl-amine] gave an inhibition at 10000 µg/mL (stock) [1] of 51.8%.
Work on `CCc1ccc(Nc2nc3cc(Cl)ccc3o2)cc1` [Compound of formula 5, (5-Chloro-benzooxazol-2-yl)-(4-ethyl-phenyl)-amine] yielded an inhibition at 10000 µg/mL (stock) [1] of 47.5%.
Work on `Clc1ccc2oc(Nc3ccc(Cl)c(Cl)c3)nc2c1` [Compound of formula 6, (5-Chloro-benzooxazol-2-yl)-(3,4-dichloro-phenyl)-amine] yielded an inhibition at 10000 µg/mL (stock) [1] of 52.8%.
In the case of `O=[N+]([O-])c1ccc2oc(Nc3ccc(/N=N/c4ccccc4)cc3)nc2c1` [Compound of formula 7, (5-Nitro-benzooxazol-2-yl)-(4-phenylazo-phenyl)-amine], the inhibition at 10000 µg/mL (stock) [1] is reported as 47.6%.
For `O=C(Nc1nc2ccccc2o1)c1ccccc1` [Compound of formula 8, N-Benzooxazol-2-yl-benzamide], the inhibition at 10000 µg/mL (stock) [1] was 47.3%.
With `O=C(Nc1nc2cc([N+](=O)[O-])ccc2o1)c1ccccc1` [Compound of formula 9, N-(5-Nitro-benzooxazol-2-yl)-benzamide] the inhibition at 10000 µg/mL (stock) [1] was 36.9%.
`COc1ccc2oc(NC(=O)c3ccccc3)nc2c1` [Compound of formula 10, N-(5-Methoxy-benzooxazol-2-yl)-benzamide] gave an inhibition at 10000 µg/mL (stock) [1] of 60%.
Compound `Cc1ccc2oc(NC(=O)c3ccccc3)nc2c1` [Compound of formula 11, N-(5-Methyl-benzooxazol-2-yl)-benzamide] has an inhibition at 10000 µg/mL (stock) [1] of 49.1%.
With `O=C(Nc1nc2ccc([N+](=O)[O-])cc2s1)c1ccc(C(F)(F)F)cc1` [Compound of formula 12, N-(6-Nitro-benzothiazol-2-yl)-4-trifluoromethyl-benzamide] the inhibition at 10000 µg/mL (stock) [1] was 52.5%.
In the case of `Cc1ccc2oc(-c3ccccc3OCC(=O)O)nc2c1` [Compound of formula 13, [2-(5-Methyl-benzooxazol-2-yl)-phenoxy]-acetic acid], the inhibition at 10000 µg/mL (stock) [1] is reported as 55.2%.
Compound `Cc1cc(C)c(-c2nc3cc(N)ccc3o2)c(C)c1` [Compound of formula 14, 2-(2,4,6-Trimethyl-phenyl)-benzooxazol-5-ylamine] has an inhibition at 10000 µg/mL (stock) [1] of 49.3%.
In the case of `COc1cccc(OC)c1-c1nc2ccccc2s1` [Compound of formula 16, 2-(2,6-Dimethoxy-phenyl)-benzothiazole], the inhibition at 10000 µg/mL (stock) [1] is reported as 47.6%.
With `Fc1ccc(CNCc2c[nH]c3ccc(F)cc23)c(Cl)c1` [Compound of formula 17, (2-Chloro-4-fluoro-benzyl)-(5-fluoro-1H-indol-3-ylmethyl)-amine] the inhibition at 10000 µg/mL (stock) [1] was 36.5%.
With `COc1ccc2c(c1)CC[C@@H]1[C@@H]2CC[C@]2(C)[C@@H](NCCCCCCN3C(=O)C=CC3=O)CC[C@@H]12` [U73122] the “Laminin-dependent increase of KRS and 67LR in the membrane fraction” value (A549 cells) was “larger laminin-dependent increase of 67LR than those in the control group”.
With `CN[C@@H]1C[C@H]2O[C@@](C)([C@@H]1OC)n1c3ccccc3c3c4c(c5c6ccccc6n2c5c31)C(=O)NC4` [staurosporin] the “Laminin-dependent increase of KRS and 67LR in the membrane fraction” value (A549 cells) was “larger laminin-dependent increase of 67LR than those in the control group” and the “laminin-induced phosphorylated KRS at threonine and serine” value (KRS) was “did not have any effect”.
